Relative viability data for 1 cell line are collected here from the supplement of paper PMC10307832.

Common to all, as to assay: relative viability (nuclei count vs DMSO), 5 days (fraction); higher = more cells survive
Compound in the assay “XMD14-99 + Pemetrexed”: CN1CCN(CC1)C2=CC(=C(C=C2)NC3=NC(=C(S3)C(=O)C4=C(C=CC=C4Cl)Cl)N)OC [XMD14-99] + Nc1nc2[nH]cc(CCc3ccc(C(=O)N[C@@H](CCC(=O)O)C(=O)O)cc3)c2c(=O)[nH]1 [Pemetrexed] (partner 0.2 µM)
Summed up: (§1)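 Nuclei were stained with Hoechst during a one-step fixation (final 0.05% Triton X-100, 1% formaldehyde, 1 ug/ml Hoechst) carried out 5 days after dosing, then counted on 4× images. The cells, lung cancer lines in 1536-well plates, had been dosed by pin tool the day after seeding with one drug alone or a fixed anchor-drug dose plus five library-drug doses (not always all listed) in √10 steps. Relative viability is the nuclei count in treated wells divided by that in vehicle wells, and each value is the median of duplicate plates.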

Compound in the assay “AZD1208 + Pictilisib”: N[C@@H]1CCCN(c2c(/C=C3\SC(=O)NC3=O)cccc2-c2ccccc2)C1 [AZD1208] + CS(=O)(=O)N1CCN(Cc2cc3nc(-c4cccc5[nH]ncc45)nc(N4CCOCC4)c3s2)CC1 [Pictilisib] (partner 1 µM)
Summed up: as §1

Compound in the assay “AZD1208 + Luminespib”: N[C@@H]1CCCN(c2c(/C=C3\SC(=O)NC3=O)cccc2-c2ccccc2)C1 [AZD1208] + CCNC(=O)c1noc(-c2cc(C(C)C)c(O)cc2O)c1-c1ccc(CN2CCOCC2)cc1 [Luminespib] (partner 0.01 µM)
The essentials:
as §1

Compound in the assay “XMD14-99 + Dasatinib”: CN1CCN(CC1)C2=CC(=C(C=C2)NC3=NC(=C(S3)C(=O)C4=C(C=CC=C4Cl)Cl)N)OC [XMD14-99] + Cc1nc(Nc2ncc(C(=O)Nc3c(C)cccc3Cl)s2)cc(N2CCN(CCO)CC2)n1 [Dasatinib] (partner 0.075 µM)
The essentials:
as §1

Turning to UMC-11, the relative viability in the assay with XMD14-99 + Pemetrexed (first compound 0.08 µM) is 0.752; with XMD14-99 + Pemetrexed (first compound 0.8 µM) it was 0.769; with XMD14-99 + Pemetrexed (first compound 2.53 µM), 0.688; in the assay with XMD14-99 + Pemetrexed (first compound 8 µM), 0.69; with AZD1208 + Pictilisib (first compound 0.08 µM), 0.507; in the assay with AZD1208 + Pictilisib (first compound 0.253 µM), 0.612. For the same cell line, the relative viability with AZD1208 + Pictilisib (first compound 0.8 µM) amounted to 0.51; in the assay with AZD1208 + Pictilisib (first compound 2.53 µM), 0.389; with AZD1208 + Pictilisib (first compound 8 µM) it was 0.344; in the assay with AZD1208 + Luminespib (first compound 0.08 µM), 0.816; with AZD1208 + Luminespib (first compound 0.253 µM) it was 0.894; with AZD1208 + Luminespib (first compound 0.8 µM), 0.62. Moreover, the relative viability with AZD1208 + Luminespib (first compound 2.53 µM) stood at 0.664; in the assay with AZD1208 + Luminespib (first compound 8 µM), 0.406; in the assay with XMD14-99 + Dasatinib (first compound 0.08 µM), 0.441; in the assay with XMD14-99 + Dasatinib (first compound 0.8 µM) it was 0.478; with XMD14-99 + Dasatinib (first compound 2.53 µM), 0.438; in the assay with XMD14-99 + Dasatinib (first compound 8 µM), 0.344.
